The values that follow come from patent publication US9234000B2, “Benzylamine derivatives as inhibitors of plasma kallikrein” (KalVista Pharmaceuticals Limited, priority 2011, dated 2016).

The term pIC50 denotes the IC50 on a negative log10 scale, so that one unit is a factor of ten.

pIC50: −log10 of the molar value. Like-named read-outs stand apart in the source and are kept apart here.

The target in one test is Human plasma kallikrein (Homo sapiens (Human), UniProt P03952). Description: Determination of the IC50 for plasma kallikrein. Type of test: biochemical. The note with it: 37° C., read-out: IC50 (human PKal). On the procedure:
Determination of the IC50 for Plasma Kallikrein
Plasma kallikrein inhibitory activity in vitro was determined using standard published methods (see e.g. Johansen et al., Int. J. Tiss. Reac. 1986, 8, 185; Shori et al., Biochem. Pharmacol., 1992, 43, 1209; Stiirzebecher et al., Biol. Chem. Hoppe-Seyler, 1992, 373, 1025). Human plasma kallikrein (Protogen) was incubated at 37° C. with the fluorogenic substrate H-DPro-Phe-Arg-AFC and various concentrations of the test compound. Residual enzyme activity (initial rate of reaction) was determined by measuring the change in optical absorbance at 410 nm and the IC50 value for the test compound was determined.

The target of a further test is Human KLK1 (Homo sapiens (Human), UniProt P06870). Put plainly: Determination of the IC50 for KLK1. The conditions noted are these: Human KLK1, 37° C., substrate H-DVal-Leu-Arg-AFC. Type of test: biochemical. The procedure: Determination of the IC50 for KLK1
Sequence of Human KLK1 (P06870 25-262): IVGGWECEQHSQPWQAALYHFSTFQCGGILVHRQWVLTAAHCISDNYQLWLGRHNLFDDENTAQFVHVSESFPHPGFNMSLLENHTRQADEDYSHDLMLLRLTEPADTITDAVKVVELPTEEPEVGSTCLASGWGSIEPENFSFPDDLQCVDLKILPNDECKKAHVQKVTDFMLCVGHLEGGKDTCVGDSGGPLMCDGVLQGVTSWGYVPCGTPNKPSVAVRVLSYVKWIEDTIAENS
KLK1 inhibitory activity in vitro was determined using standard published methods (see e.g. Johansen et al., Int. J. Tiss. Reac. 1986, 8, 185; Shori et al., Biochem. Pharmacol., 1992, 43, 1209; Stürzebecher et al., Biol. Chem. Hoppe-Seyler, 1992, 373, 1025). Human KLK1 (Callbiochem) was incubated at 37° C. with the fluorogenic substrate H-DVal-Leu-Arg-AFC and various concentrations of the test compound. Residual enzyme activity (initial rate of reaction) was determined by measuring the change in optical absorbance at 410 nm and the IC50 value for the test compound was determined.

The mark [1] stands for this setting: fluorogenic substrate H-DPro-Phe-Arg-AFC.

Sequence of Human plasma kallikrein (P03952 391-638): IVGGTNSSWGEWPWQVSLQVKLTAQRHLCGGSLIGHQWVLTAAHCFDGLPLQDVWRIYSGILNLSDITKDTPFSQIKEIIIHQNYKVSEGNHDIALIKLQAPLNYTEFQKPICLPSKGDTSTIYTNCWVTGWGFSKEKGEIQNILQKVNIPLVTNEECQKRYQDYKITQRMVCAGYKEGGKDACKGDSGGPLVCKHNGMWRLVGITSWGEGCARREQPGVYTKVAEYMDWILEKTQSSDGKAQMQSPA
Sequence of Human plasma kallikrein (P03952 20-390 partner): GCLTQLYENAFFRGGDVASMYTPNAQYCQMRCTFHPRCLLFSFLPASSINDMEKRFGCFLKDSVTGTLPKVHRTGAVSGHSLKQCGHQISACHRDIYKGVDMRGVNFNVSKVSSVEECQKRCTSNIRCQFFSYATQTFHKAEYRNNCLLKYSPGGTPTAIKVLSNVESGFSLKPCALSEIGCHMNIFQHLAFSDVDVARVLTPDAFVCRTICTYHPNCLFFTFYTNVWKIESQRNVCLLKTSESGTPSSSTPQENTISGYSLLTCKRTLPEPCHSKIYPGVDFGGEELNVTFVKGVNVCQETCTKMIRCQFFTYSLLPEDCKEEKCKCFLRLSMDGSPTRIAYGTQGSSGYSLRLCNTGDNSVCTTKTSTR

Consider `CCOc1ccc(C[C@@H](NC(=O)c2ccncc2)C(=O)N[C@@H](Cc2ccc(F)c(F)c2)C(=O)NCc2ccc(CN)cc2)cc1` [Example 161, N-[(R)-1-[(S)-1-(4-Aminomethyl-benzylcarbamoyl)-2-(3,4-difluoro-phenyl)-ethylcarbamoyl]-2-(4-ethoxy-phenyl)-ethyl]-isonicotinamide], for which the pIC50 on Human plasma kallikrein (substrate H-DPro-Phe-Arg-AFC) was 7.31; at Human KLK1 (Table 13), 5.16.

In the case of `CCOc1ccc(C[C@@H](NC(=O)c2ccncc2)C(=O)N[C@@H](Cc2ccc(Cl)c(Cl)c2)C(=O)NCc2ccc(CN)cc2)cc1` [Example 171, N-[(R)-1-[(S)-1-(4-Aminomethyl-benzylcarbamoyl)-2-(3,4-dichloro-phenyl)-ethylcarbamoyl]-2-(4-ethoxy-phenyl)-ethyl]-isonicotinamide], the pIC50 is 6.91 at Human plasma kallikrein (substrate H-DPro-Phe-Arg-AFC) and 5.03 at Human KLK1 (Table 13).

Regarding `CCOc1ccc(C[C@@H](NC(=O)NC(C)C)C(=O)N[C@@H](Cc2ccccc2)C(=O)NCc2ccc(CN)cc2)cc1` [Example 77, (R)-N-[(S)-1-(4-Aminomethyl-benzylcarbamoyl)-2-phenyl-ethyl]-3-(4-ethoxy-phenyl)-2-(3-isopropyl-ureido)-propionamide], the negative logarithm of the IC50 (pIC50) is 5.71 at Human plasma kallikrein (substrate H-DPro-Phe-Arg-AFC) and < 5.00 against Human KLK1 (Table 13).

As to `C[C@@H](NC(=O)c1ccccc1)C(=O)N[C@@H](Cc1ccccc1)C(=O)NCc1ccc(CN)cc1` [Example 22, N-{(R)-1-[(S)-1-(4-Aminomethyl-benzylcarbamoyl)-2-phenyl-ethylcarbamoyl]-ethyl}-benzamide], the pIC50 was 5.00 on Human plasma kallikrein (setting [1]) and 5.02 on Human KLK1 (Table 12).

Take `CCOc1ccc(C[C@@H](NC(=O)c2ccc(Cl)nc2Cl)C(=O)N[C@@H](Cc2ccccc2)C(=O)NCc2ccc(CN)cc2)cc1` [Example 106, N-[(R)-1-[(S)-1-(4-Aminomethyl-benzylcarbamoyl)-2-phenyl-ethylcarbamoyl]-2-(4-ethoxy-phenyl)-ethyl]-2,6-dichloro-nicotinamide]: the pIC50 is 6.59 on Human plasma kallikrein (substrate H-DPro-Phe-Arg-AFC) and 5.08 on Human KLK1 (Table 13).

For `CCOc1ccc(C[C@@H](NC(=O)c2ccccc2)C(=O)N[C@@H](Cc2cccc(C(F)(F)F)c2)C(=O)NCc2ccc(CN)cc2)cc1` [Example 144, N-[(R)-1-[(S)-1-(4-Aminomethyl-benzylcarbamoyl)-2-(3-trifluoromethyl-phenyl)-ethylcarbamoyl]-2-(4-ethoxy-phenyl)-ethyl]-benzamide], the negative-log IC50 (pIC50) is 6.47 at Human plasma kallikrein (substrate H-DPro-Phe-Arg-AFC) and < 5.00 against Human KLK1 (Table 13).

In the case of `CCOc1ccc(C[C@@H](NC(=O)c2ccc(Cl)cc2)C(=O)N[C@@H](Cc2ccccn2)C(=O)NCc2ccc(CN)cc2)cc1` [Example 163, N-[(R)-1-[(S)-1-(4-Aminomethyl-benzylcarbamoyl)-2-pyridin-2-yl-ethylcarbamoyl]-2-(4-ethoxy-phenyl)-ethyl]-4-chloro-benzamide], the negative logarithm of the IC50 (pIC50) on Human plasma kallikrein (substrate H-DPro-Phe-Arg-AFC) is 7.19; against Human KLK1 (Table 13) it was < 5.00.

On to `NCc1ccc(CNC(=O)[C@H](Cc2ccccc2)NC(=O)[C@@H](Cc2ccc(OCc3cccc(F)c3)cc2)NC(=O)c2ccccc2)cc1` [Example 136, N-{(R)-1-[(S)-1-(4-Aminomethyl-benzylcarbamoyl)-2-phenyl-ethylcarbamoyl]-2-[4-(3-fluoro-benzyloxy)-phenyl]-ethyl}-benzamide], for which the figures for the pIC50 on Human plasma kallikrein (substrate H-DPro-Phe-Arg-AFC) and on Human KLK1 (Table 13) were 5.99 and < 5.00, respectively.

As for `CCOc1ccc(C[C@@H](NC(=O)NCc2ccccc2)C(=O)N[C@@H](Cc2ccccc2)C(=O)NCc2ccc(CN)cc2)cc1` [Example 68, (R)-N-[(S)-1-(4-Aminomethyl-benzylcarbamoyl)-2-phenyl-ethyl]-2-(3-benzyl-ureido)-3-(4-ethoxy-phenyl)-propionamide], the negative logarithm of the IC50 (pIC50) on Human plasma kallikrein (substrate H-DPro-Phe-Arg-AFC) is 6.06; against Human KLK1 (Table 13), < 5.00.

Regarding `CCOc1ccc(C[C@@H](NC(=O)c2ccc(C)cc2)C(=O)N[C@@H](Cc2ccccn2)C(=O)NCc2ccc(CN)cc2)cc1` [Example 164, N-[(R)-1-[(S)-1-(4-Aminomethyl-benzylcarbamoyl)-2-pyridin-2-yl-ethylcarbamoyl]-2-(4-ethoxy-phenyl)-ethyl]-4-methyl-benzamide], the negative-log IC50 (pIC50) is 7.30 at Human plasma kallikrein (substrate H-DPro-Phe-Arg-AFC) and < 5.00 against Human KLK1 (Table 13).

As to `CCOc1ccc(C[C@@H](NC(=O)CC)C(=O)N[C@@H](Cc2ccccc2)C(=O)NCc2ccc(CN)c(F)c2)cc1` [Example 7, (S)-N-(4-Aminomethyl-3-fluoro-benzyl)-2-[(R)-3-(4-ethoxy-phenyl)-2-propionylamino-propionylamino]-3-phenyl-propionamide], the pIC50 at Human plasma kallikrein (setting [1]) is 7.13; against Human KLK1 (Table 12), < 6.00.

On to `CCOc1ccc(C[C@@H](NC(=O)N(CC)Cc2ccccc2)C(=O)N[C@@H](Cc2ccccc2)C(=O)NCc2ccc(CN)cc2)cc1` [Example 103, (R)-N-[(S)-1-(4-Aminomethyl-benzylcarbamoyl)-2-phenyl-ethyl]-2-(3-benzyl-3-ethyl-ureido)-3-(4-ethoxy-phenyl)-propionamide], for which the figures for the pIC50 at Human plasma kallikrein (substrate H-DPro-Phe-Arg-AFC) and against Human KLK1 (Table 13) were 5.00 and < 5.00, respectively.

Regarding `CCOc1ccc(C[C@@H](NC(=O)c2ccncc2)C(=O)N[C@@H](Cc2ccccc2)C(=O)NCc2ccc(CN)c(F)c2)cc1` [Example 167, N-[(R)-1-[(S)-1-(4-Aminomethyl-3-fluoro-benzylcarbamoyl)-2-phenyl-ethylcarbamoyl]-2-(4-ethoxy-phenyl)-ethyl]-isonicotinamide], the pIC50 at Human plasma kallikrein (substrate H-DPro-Phe-Arg-AFC) is 7.10; at Human KLK1 (Table 13) it was < 5.00.

Take `CCOc1ccc(C[C@@H](NC(=O)c2ccccc2)C(=O)N[C@@H](Cc2cccc(F)c2)C(=O)NCc2ccc(CN)cc2)cc1` [Example 149, N-[(R)-1-[(S)-1-(4-Aminomethyl-benzylcarbamoyl)-2-(3-fluoro-phenyl)-ethylcarbamoyl]-2-(4-ethoxy-phenyl)-ethyl]-benzamide]: the pIC50 on Human plasma kallikrein (substrate H-DPro-Phe-Arg-AFC) is 7.04; against Human KLK1 (Table 13), < 5.00.

As for `CCOc1ccc(C[C@@H](NC(=O)c2sc(C)nc2C)C(=O)N[C@@H](Cc2ccccc2)C(=O)NCc2ccc(CN)cc2)cc1` [Example 111, 2,4-Dimethyl-thiazole-5-carboxylic acid [(R)-1-[(S)-1-(4-aminomethyl-benzylcarbamoyl)-2-phenyl-ethylcarbamoyl]-2-(4-ethoxy-phenyl)-ethyl]-amide], the negative-log IC50 (pIC50) on Human plasma kallikrein (substrate H-DPro-Phe-Arg-AFC) was 7.24; on Human KLK1 (Table 13), < 5.00.

For the compound `CCOc1ccc(C[C@@H](NC(=O)c2ccc3nc(C)ccc3c2)C(=O)N[C@@H](Cc2ccccc2)C(=O)NCc2ccc(CN)cc2)cc1` [Example 114, 2-Methyl-quinoline-6-carboxylic acid [(R)-1-[(S)-1-(4-aminomethyl-benzylcarbamoyl)-2-phenyl-ethylcarbamoyl]-2-(4-ethoxy-phenyl)-ethyl]-amide], the pIC50 on Human plasma kallikrein (substrate H-DPro-Phe-Arg-AFC) was 6.37; at Human KLK1 (Table 13), < 5.00.

With `CCOc1ccc(C[C@@H](NC(=O)c2cc(F)nc(F)c2F)C(=O)N[C@@H](Cc2ccccc2)C(=O)NCc2ccc(CN)cc2)cc1` [Example 108, N-[(R)-1-[(S)-1-(4-Aminomethyl-benzylcarbamoyl)-2-phenyl-ethylcarbamoyl]-2-(4-ethoxy-phenyl)-ethyl]-2,3,6-trifluoro-isonicotinamide], the negative logarithm of the IC50 (pIC50) on Human plasma kallikrein (substrate H-DPro-Phe-Arg-AFC) is 6.63; on Human KLK1 (Table 13), < 5.00.

`CC(C)C[C@@H](NC(=O)c1ccccc1)C(=O)N[C@@H](Cc1ccccc1)C(=O)NCc1ccc(CN)cc1` [Example 133, N-{(R)-1-[(S)-1-(4-Aminomethyl-benzylcarbamoyl)-2-phenyl-ethylcarbamoyl]-3-methyl-butyl}-benzamide]: the pIC50 on Human plasma kallikrein (substrate H-DPro-Phe-Arg-AFC) was 5.00; on Human KLK1 (Table 13) it was < 5.00.

As to `CCOc1ccc(C[C@@H](NC(=O)c2cccc(C(F)(F)F)c2)C(=O)N[C@@H](Cc2ccccc2)C(=O)NCc2ccc(CN)cc2)cc1` [Example 90, N-[(R)-1-[(S)-1-(4-Aminomethyl-benzylcarbamoyl)-2-phenyl-ethylcarbamoyl]-2-(4-ethoxy-phenyl)-ethyl]-3-trifluoromethyl-benzamide], the values for the negative logarithm of the IC50 (pIC50) on Human plasma kallikrein (substrate H-DPro-Phe-Arg-AFC) and against Human KLK1 (Table 13) were 6.56 and < 5.00, respectively.

Consider `CCOc1ccc(C[C@@H](NC(=O)CC)C(=O)N[C@@H](Cc2cccnc2)C(=O)NCc2ccc(CN)cc2)cc1` [Example 170, (R)-N-[(S)-1-(4-Aminomethyl-benzylcarbamoyl)-2-pyridin-3-yl-ethyl]-3-(4-ethoxy-phenyl)-2-propionylamino-propionamide], for which the figures for the pIC50 on Human plasma kallikrein (substrate H-DPro-Phe-Arg-AFC) and on Human KLK1 (Table 13) were 7.29 and < 5.00, respectively.

`CCOc1ccc(C[C@@H](NC(=O)c2ccccc2)C(=O)N[C@@H](Cc2c[nH]cn2)C(=O)NCc2ccc(CN)cc2)cc1` [Example 177, N-[(R)-1-[(S)-1-(4-Aminomethyl-benzylcarbamoyl)-2-(1H-imidazol-4-yl)-ethylcarbamoyl]-2-(4-ethoxy-phenyl)-ethyl]-benzamide]: the negative logarithm of the IC50 (pIC50) at Human plasma kallikrein (substrate H-DPro-Phe-Arg-AFC) was 6.34; against Human KLK1 (Table 13), < 5.00.

In the case of `CCC(=O)N[C@H](Cc1ccc(C(F)(F)F)cc1)C(=O)N[C@@H](Cc1ccc(Cl)c(Cl)c1)C(=O)NCc1ccc(CN)cc1` [Example 19], the negative-log IC50 (pIC50) on Human plasma kallikrein (setting [1]) is 5.00; against Human KLK1 (Table 12), < 5.00.
